# Experiments:
# Format in all cases: in vivo
# Lung A-549 (NSCLC) = experiment: 124I-CLR1404 tumor uptake, model 2; settings: SCID mouse, Adenocarcinoma
# Protocol: (§1) All described animal studies were performed according to animal protocols approved by the Institutional Animal Care and Use Committee. Female athymic nude mice (Hsd:Athymic Nude-Foxnlnu or Crl:NU-Foxnlnu, Charles River Laboratories) about 4 to 5 weeks of age, 16 to 18 g (n=6), were used for human tumor xenograft studies. Mice were anesthetized with isoflurane and injected subcutaneously with viable tumor cells in 100 μl of Dulbecco's PBS (or, for glioma cells, […] of PBS) into the right flank. Inoculum sizes were 1×10^6 (for renal, ovarian, glioma, pancreatic, prostate, and NSCLC models), […] (for colorectal and uterine models), or 3×10^6 (breast).
# (§2) Radioiodinated ^124I-CLR1404 was tested in subcutaneous and orthotopic xenografts of 60 different spontaneous, transgenic, human, and rodent malignant cell lines and tumor types. […] Representative examples are of both human (FIG. 5A-5I) and rodent (FIG. 5J-M) tumors.
# Colon-51 = experiment: 124I-CLR1404 tumor uptake, model 6; settings: SCID mouse, Adenocarcinoma
# Protocol: as §1, §2
# Colon LS180 = experiment: 124I-CLR1404 tumor uptake, model 7; settings: SCID mouse, Adenocarcinoma
# Protocol: as §1, §2
# Neuroblastoma NB1691 = experiment: 124I-CLR1404 tumor uptake, model 15; settings: Nude mouse
# Protocol: as §1, §2
# Ovarian Ovcar-3 = experiment: 124I-CLR1404 tumor uptake, model 19; settings: Nude mouse, Adenocarcinoma
# Protocol: as §1, §2
# Pancreatic BXPC3 = experiment: 124I-CLR1404 tumor uptake, model 20; settings: Nude mouse, Adenocarcinoma
# Protocol: as §1, §2
# Pancreatic Mia Paca-2 = experiment: 124I-CLR1404 tumor uptake, model 21; settings: Nude mouse, Carcinoma
# Protocol: as §1, §2
# Head and neck SCC6 = experiment: 124I-CLR1404 tumor uptake, model 27; settings: Nude mouse, Squamous cell carcinoma
# Protocol: as §1, §2
# Prostate LNCap = experiment: 124I-CLR1404 tumor uptake, model 28; settings: Mouse, Adenocarcinoma
# Protocol: as §1, §2
# Uterine MES SA/Dx5 = experiment: 124I-CLR1404 tumor uptake, model 32; settings: Nude mouse, Sarcoma
# Protocol: as §1, §2
# Breast 4T1 = experiment: 124I-CLR1404 tumor uptake, model 35; settings: Endogenous mouse (orthotopic), Adenocarcinoma
# Protocol: as §1, §2
# Walker256 = experiment: 124I-CLR1404 tumor uptake, model 38; settings: Rat, Carcinosarcoma
# Protocol: as §1, §2
# Mammary SCC = experiment: 124I-CLR1404 tumor uptake, model 44; settings: ApcMin/+ mouse, Squamous cell carcinoma
# Protocol: as §1, §2
# Pancreatic c-myc = experiment: 124I-CLR1404 tumor uptake, model 52; settings: Endogenous mouse, Adenocarcinoma
# Protocol: as §1, §2
# Cervical-HPV = experiment: 124I-CLR1404 tumor uptake, model 54; settings: Endogenous mouse, Adenocarcinoma
# Protocol: as §1, §2
# Hepatoma Hep-3B = experiment: 124I-CLR1404 tumor uptake, model 58; settings: Nude mouse, Carcinoma
# Protocol: as §1, §2
structure (smiles),measurement,setting,value
C[N+](C)(C)CCOP(=O)([O-])OCCCCCCCCCCCCCCCCCCc1ccc(I)cc1 [^124I-CLR1404],Uptake,Lung A-549 (NSCLC),Yes (Tumor uptake was considered positive if tumor to muscle ratio was greater than 3.)
same,Uptake,Colon-51,Yes (Tumor uptake was considered positive if tumor to muscle ratio was greater than 3.)
same,Uptake,Colon LS180,Yes (Tumor uptake was considered positive if tumor to muscle ratio was greater than 3.)
same,Uptake,Neuroblastoma NB1691,Yes (Tumor uptake was considered positive if tumor to muscle ratio was greater than 3.)
same,Uptake,Ovarian Ovcar-3,Yes (Tumor uptake was considered positive if tumor to muscle ratio was greater than 3.)
same,Uptake,Pancreatic BXPC3,Yes (Tumor uptake was considered positive if tumor to muscle ratio was greater than 3.)
same,Uptake,Pancreatic Mia Paca-2,Yes (Tumor uptake was considered positive if tumor to muscle ratio was greater than 3.)
same,Uptake,Head and neck SCC6,Yes (Tumor uptake was considered positive if tumor to muscle ratio was greater than 3.)
same,Uptake,Prostate LNCap,Yes (Tumor uptake was considered positive if tumor to muscle ratio was greater than 3.)
same,Uptake,Uterine MES SA/Dx5,Yes (Tumor uptake was considered positive if tumor to muscle ratio was greater than 3.)
same,Uptake,Breast 4T1,Yes (Tumor uptake was considered positive if tumor to muscle ratio was greater than 3.)
same,Uptake,Walker256,Yes (Tumor uptake was considered positive if tumor to muscle ratio was greater than 3.)
same,Uptake,Mammary SCC,Yes (Tumor uptake was considered positive if tumor to muscle ratio was greater than 3.)
same,Uptake,Pancreatic c-myc,Yes (Tumor uptake was considered positive if tumor to muscle ratio was greater than 3.)
same,Uptake,Cervical-HPV,Yes (Tumor uptake was considered positive if tumor to muscle ratio was greater than 3.)
same,Uptake,Hepatoma Hep-3B,No (Tumor:muscle ratio less than or equal to 2 was considered negative.)
